{"source": "the supplement of paper PMC11208160"}
{"assay": "recombinant UMI read abundance after kanamycin selection (control-corrected) (log10(CPM+1)); higher = more efficient recombination; extreme values may be limits of the assay; sequences stand for … in AGTGCAGAGAAAATCGGCCAGTTTTCTCTGCCTGCAGTCCGCATGCCGTGGGACCCCTTGGGTTCTAACCTGTTGCCTAGATTTATGCAGCGGACTGCCTTTCTCCCAAAGTGATAAACCGG…AGGTTGGTTTCACT; site = the 11-nt donor", "in_short": "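Each donor and donor-binding-loop pair was tracked by a 12-nt UMI on a plasmid carrying a promoterless kanamycin gene. With a second plasmid supplying a fixed target and T7-inducible IS621 bridge recombinase, the pool was plated in Escherichia coli on IPTG (0.07 mM) plus kanamycin or unselected. Sequencing of recombinant UMIs across the donor–target junction gave counts expressed as log10(CPM+1) after replicate averaging and control-derived scaling.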"}
{"sequence": "TCAGCATCATGGACCGGTTTTCCCGGTAATCCGTATTTGCA (site ACAGTATCTTG)", "recombinant UMI read abundance (log10)": 0.8}
{"sequence": "TCAGCATCATGGACCGGTTTTCCCGGTAATCCGTATTTGCA (site TCAGCATCTTG)", "recombinant UMI read abundance (log10)": 0.224}
{"sequence": "TCAGCCTCATGGACCGGTTTTCCCGGTAATCCGTATTTGAT (site TCAGCCTCTAT)", "recombinant UMI read abundance (log10)": 1.36}
{"sequence": "TCAGCGACATGGACCGGTTTTCCCGGTAATCCGTATTTGCG (site TCAGAGACTCG)", "recombinant UMI read abundance (log10)": 0.00361}
{"sequence": "TCAGCGACATGGACCGGTTTTCCCGGTAATCCGTATTTGCG (site TCAGCGACTCG)", "recombinant UMI read abundance (log10)": 1.37}
{"sequence": "TCAGCGACATGGACCGGTTTTCCCGGTAATCCGTATTTGCG (site TCAGGGACTCG)", "recombinant UMI read abundance (log10)": 0.0187}
{"sequence": "TCAGCGACATGGACCGGTTTTCCCGGTAATCCGTATTTGCG (site TCAGTGACTCG)", "recombinant UMI read abundance (log10)": 0.00864}
{"sequence": "TCAGCTGCATGGACCGGTTTTCCCGGTAATCCGTATTTGTG (site TAAGCTGCTCA)", "recombinant UMI read abundance (log10)": 0.0147}
{"sequence": "TCAGCTGCATGGACCGGTTTTCCCGGTAATCCGTATTTGTG (site TCAGCTGCTCA)", "recombinant UMI read abundance (log10)": 0.637}
{"sequence": "TCAGCTGCATGGACCGGTTTTCCCGGTAATCCGTATTTGTG (site TGAGCTGCTCA)", "recombinant UMI read abundance (log10)": 0.00568}
{"sequence": "TCAGCTGCATGGACCGGTTTTCCCGGTAATCCGTATTTGTG (site TTAGCTGCTCA)", "recombinant UMI read abundance (log10)": 0.0047}
{"sequence": "TCAGGCACATGGACCGGTTTTCCCGGTAATCCGTATTTGGC (site TCAGGCACTGC)", "recombinant UMI read abundance (log10)": 0.89}
{"sequence": "TCAGGGACATGGACCGGTTTTCCCGGTAATCCGTATTTGCG (site TCAGAGACTCG)", "recombinant UMI read abundance (log10)": 0.74}
{"sequence": "TCAGGGACATGGACCGGTTTTCCCGGTAATCCGTATTTGCG (site TCAGCGACTCG)", "recombinant UMI read abundance (log10)": 0.0114}
{"sequence": "TCAGGGACATGGACCGGTTTTCCCGGTAATCCGTATTTGCG (site TCAGGGACTCG)", "recombinant UMI read abundance (log10)": 1.03}
{"sequence": "TCAGGGACATGGACCGGTTTTCCCGGTAATCCGTATTTGCG (site TCAGTGACTCG)", "recombinant UMI read abundance (log10)": 0.0229}
{"sequence": "TCAGTAACATGGACCGGTTTTCCCGGTAATCCGTATTTGTA (site TCAGTAACTTA)", "recombinant UMI read abundance (log10)": 1.71}
{"sequence": "TCAGTAGCATGGACCGGTTTTCCCGGTAATCCGTATTTGGC (site TCAGTAGCTGC)", "recombinant UMI read abundance (log10)": 1.54}
{"sequence": "TCAGTTCCATGGACCGGTTTTCCCGGTAATCCGTATTTGAA (site TCAGTTCCTTT)", "recombinant UMI read abundance (log10)": 0.398}
{"sequence": "TCAGTTTCATGGACCGGTTTTCCCGGTAATCCGTATTTGCA (site ACAGTATCTTG)", "recombinant UMI read abundance (log10)": 0.0288}
{"sequence": "TCAGTTTCATGGACCGGTTTTCCCGGTAATCCGTATTTGCA (site TCAGTTTCTTG)", "recombinant UMI read abundance (log10)": 1.14}
{"sequence": "TCATACACATGGACCGGTTTTCCCGGTAATCCGTATTTGCA (site TCATACACTTG)", "recombinant UMI read abundance (log10)": 2.45}
{"sequence": "TCATACACATGGACCGGTTTTCCCGGTAATCCGTATTTGCA (site TCATACCCTTG)", "recombinant UMI read abundance (log10)": 0.302}
{"sequence": "TCATACACATGGACCGGTTTTCCCGGTAATCCGTATTTGCA (site TCATACGCTTG)", "recombinant UMI read abundance (log10)": 1.36}
{"sequence": "TCATACACATGGACCGGTTTTCCCGGTAATCCGTATTTGCA (site TCATACTCTTG)", "recombinant UMI read abundance (log10)": 1.5}
{"sequence": "TCATACCCATGGACCGGTTTTCCCGGTAATCCGTATTTGTG (site TCATACCCTCA)", "recombinant UMI read abundance (log10)": 0}
{"sequence": "TCATACTCATGGACCGGTTTTCCCGGTAATCCGTATTTGGA (site TCATACTCTTA)", "recombinant UMI read abundance (log10)": 0.26}
{"sequence": "TCATACTCATGGACCGGTTTTCCCGGTAATCCGTATTTGGA (site TCATACTCTTC)", "recombinant UMI read abundance (log10)": 1.76}
{"sequence": "TCATACTCATGGACCGGTTTTCCCGGTAATCCGTATTTGGA (site TCATACTCTTG)", "recombinant UMI read abundance (log10)": 0}
{"sequence": "TCATACTCATGGACCGGTTTTCCCGGTAATCCGTATTTGGA (site TCATACTCTTT)", "recombinant UMI read abundance (log10)": 1.17}
{"sequence": "TCATACTCATGGACCGGTTTTCCCGGTAATCCGTATTTGTA (site TCATACTCTTA)", "recombinant UMI read abundance (log10)": 1.51}
{"sequence": "TCATACTCATGGACCGGTTTTCCCGGTAATCCGTATTTGTA (site TCATACTCTTC)", "recombinant UMI read abundance (log10)": 0.00471}
{"sequence": "TCATACTCATGGACCGGTTTTCCCGGTAATCCGTATTTGTA (site TCATACTCTTG)", "recombinant UMI read abundance (log10)": 0}
{"sequence": "TCATACTCATGGACCGGTTTTCCCGGTAATCCGTATTTGTA (site TCATACTCTTT)", "recombinant UMI read abundance (log10)": 0.299}
{"sequence": "TCATAGACATGGACCGGTTTTCCCGGTAATCCGTATTTGAC (site TCATAGACTGT)", "recombinant UMI read abundance (log10)": 0.421}
{"sequence": "TCATAGGCATGGACCGGTTTTCCCGGTAATCCGTATTTGTT (site TCATAGGCTAA)", "recombinant UMI read abundance (log10)": 1.27}
{"sequence": "TCATAGTCATGGACCGGTTTTCCCGGTAATCCGTATTTGCA (site TCATAATCTTG)", "recombinant UMI read abundance (log10)": 2.41}
{"sequence": "TCATAGTCATGGACCGGTTTTCCCGGTAATCCGTATTTGCA (site TCATACTCTTG)", "recombinant UMI read abundance (log10)": 0.653}
{"sequence": "TCATAGTCATGGACCGGTTTTCCCGGTAATCCGTATTTGCA (site TCATAGTCTTG)", "recombinant UMI read abundance (log10)": 2.25}
{"sequence": "TCATAGTCATGGACCGGTTTTCCCGGTAATCCGTATTTGCA (site TCATATTCTTG)", "recombinant UMI read abundance (log10)": 0}
{"sequence": "TCATCCTCATGGACCGGTTTTCCCGGTAATCCGTATTTGAA (site TCATCCTCTTT)", "recombinant UMI read abundance (log10)": 1.05}
{"sequence": "TCATCGTCATGGACCGGTTTTCCCGGTAATCCGTATTTGAA (site TCATCGTCTTT)", "recombinant UMI read abundance (log10)": 0.467}
{"sequence": "TCATGCCCATGGACCGGTTTTCCCGGTAATCCGTATTTGGC (site TCATGCCCTGC)", "recombinant UMI read abundance (log10)": 0}
{"sequence": "TCATTATCATGGACCGGTTTTCCCGGTAATCCGTATTTGCA (site TCATTATCTTG)", "recombinant UMI read abundance (log10)": 1.7}
{"sequence": "TCATTCTCATGGACCGGTTTTCCCGGTAATCCGTATTTGCT (site TCATTCTCTAG)", "recombinant UMI read abundance (log10)": 0.981}
{"sequence": "TCATTGCCATGGACCGGTTTTCCCGGTAATCCGTATTTGAG (site TCATTGCCTCT)", "recombinant UMI read abundance (log10)": 0.00408}
{"sequence": "TCATTTACATGGACCGGTTTTCCCGGTAATCCGTATTTGGA (site TCATTTACTTC)", "recombinant UMI read abundance (log10)": 0.164}
{"sequence": "TCCAATACATGGACCGGTTTTCCCGGTAATCCGTATTTGCC (site TCCAATACTGG)", "recombinant UMI read abundance (log10)": 0}
{"sequence": "TCCAATACATGGACCGGTTTTCCCGGTAATCCGTATTTGCC (site TCCAATCCTGG)", "recombinant UMI read abundance (log10)": 0}
{"sequence": "TCCAATACATGGACCGGTTTTCCCGGTAATCCGTATTTGCC (site TCCAATGCTGG)", "recombinant UMI read abundance (log10)": 0}
{"sequence": "TCCAATACATGGACCGGTTTTCCCGGTAATCCGTATTTGCC (site TCCAATTCTGG)", "recombinant UMI read abundance (log10)": 0}
{"sequence": "TCCAATCCATGGACCGGTTTTCCCGGTAATCCGTATTTGCC (site TCCAATACTGG)", "recombinant UMI read abundance (log10)": 0}
{"sequence": "TCCAATCCATGGACCGGTTTTCCCGGTAATCCGTATTTGCC (site TCCAATCCTGG)", "recombinant UMI read abundance (log10)": 0}
{"sequence": "TCCAATCCATGGACCGGTTTTCCCGGTAATCCGTATTTGCC (site TCCAATGCTGG)", "recombinant UMI read abundance (log10)": 0}
{"sequence": "TCCAATCCATGGACCGGTTTTCCCGGTAATCCGTATTTGCC (site TCCAATTCTGG)", "recombinant UMI read abundance (log10)": 0}
{"sequence": "TCCAATTCATGGACCGGTTTTCCCGGTAATCCGTATTTGGC (site TCCAATTCTGA)", "recombinant UMI read abundance (log10)": 0}
{"sequence": "TCCAATTCATGGACCGGTTTTCCCGGTAATCCGTATTTGGC (site TCCAATTCTGC)", "recombinant UMI read abundance (log10)": 0}
{"sequence": "TCCAATTCATGGACCGGTTTTCCCGGTAATCCGTATTTGGC (site TCCAATTCTGG)", "recombinant UMI read abundance (log10)": 0}
{"sequence": "TCCAATTCATGGACCGGTTTTCCCGGTAATCCGTATTTGGC (site TCCAATTCTGT)", "recombinant UMI read abundance (log10)": 0}
{"sequence": "TCCACCGCATGGACCGGTTTTCCCGGTAATCCGTATTTGCT (site TCCACCGCTAG)", "recombinant UMI read abundance (log10)": 0}
{"sequence": "TCCACCGCATGGACCGGTTTTCCCGGTAATCCGTATTTGCT (site TCCACCGCTCG)", "recombinant UMI read abundance (log10)": 0.0171}
{"sequence": "TCCACCGCATGGACCGGTTTTCCCGGTAATCCGTATTTGCT (site TCCACCGCTGG)", "recombinant UMI read abundance (log10)": 0}
{"sequence": "TCCACCGCATGGACCGGTTTTCCCGGTAATCCGTATTTGCT (site TCCACCGCTTG)", "recombinant UMI read abundance (log10)": 0}
{"sequence": "TCCACGCCATGGACCGGTTTTCCCGGTAATCCGTATTTGCC (site TCCACGCCTGG)", "recombinant UMI read abundance (log10)": 0}
{"sequence": "TCCACTTCATGGACCGGTTTTCCCGGTAATCCGTATTTGAG (site TCCACTTCTCT)", "recombinant UMI read abundance (log10)": 0.0133}
{"sequence": "TCCAGTGCATGGACCGGTTTTCCCGGTAATCCGTATTTGGT (site TCCAGTGCTAC)", "recombinant UMI read abundance (log10)": 0.00561}
{"sequence": "TCCATAGCATGGACCGGTTTTCCCGGTAATCCGTATTTGTA (site TCCATAGCTTA)", "recombinant UMI read abundance (log10)": 0.0478}
{"sequence": "TCCATTTCATGGACCGGTTTTCCCGGTAATCCGTATTTGCC (site TCCAATTCTGG)", "recombinant UMI read abundance (log10)": 0}
